# Results published in patent US8937078B2, “Quinazolinones as prolyl hydroxylase inhibitors” (Janssen Pharmaceutica NV, priority 2009, dated 2015).
# Experiments:
# Hep-3B cells = assay: Cellular assay: erythropoietin secretion in Hep-3B cells; format: cell-based, human; details: Homo sapiens, Hep3B, 100 μM compound, 24 hours, percent of EPO secretion relative to assay control compound 7-[(4-Chloro-phenyl)-(5-methyl-isoxazol-3-ylamino)-methyl]-quinolin-8-ol, read-out: Cellular % EPO Stimulation
# Description: Hep-3B cells (ATCC, Manassas, Va.) were plated in 96-well plates at 20,000 cells per well in 100 μl of DMEM containing 10% fetal bovine serum, 1% non-essential amino acids, 50 IU/mL of penicillin and 50 μg/mL of streptomycin (all cell culture reagents from Invitrogen, Carlsbad, Calif.). Twenty-four hours after plating, compounds were added and incubated for an additional 24 hours. All compounds were tested under saturating conditions with final compound concentrations at 100 μM. Fifty microliters of the supernatant was then transferred to a human Hypoxia assay kit (Meso-Scale Discovery, Gaithersburg, Md.). Erythropoietin in the supernatant was detected according to the manufacturer's instructions as follows. EPO detection plates were blocked with 3% BSA in PBS overnight and 50 μl of the supernatant was incubated at room temperature in an orbital shaker for 2 h. Twenty-five microliters of 0.5 μg/ml anti-EPO detection antibody was added for 2 hours at room temperature in an orbital shaker. After 3 washes in PBS, 150 μl of 1× read buffer is added and the plate is then read on the MSD SECTOR instrument.
# human PHD2 (PHD2181-417) = biological target: T1, human PHD2 (PHD2181-417) (Homo sapiens, UniProt Q9GZT9); assay: PHD enzymatic assay ([14C]-succinic acid production); format: biochemical; details: PHD2181-417, HIF-1α peptide 10 μM, average of results; read-out: Enzyme pIC50 (converted)
# T1 construct: Smt (SUMO) tag (cleaved yes); made in house; host or cells: E. coli BL21 (pBAD vector)
# T1 sequence (Q9GZT9 181-417): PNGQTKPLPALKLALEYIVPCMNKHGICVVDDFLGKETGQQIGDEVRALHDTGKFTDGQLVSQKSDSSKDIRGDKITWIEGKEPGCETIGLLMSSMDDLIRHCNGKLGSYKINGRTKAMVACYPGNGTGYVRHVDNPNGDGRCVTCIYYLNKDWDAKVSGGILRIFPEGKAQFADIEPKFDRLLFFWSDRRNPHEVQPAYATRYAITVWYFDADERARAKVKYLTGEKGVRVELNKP
# Description: Protein production was achieved by expression in BL21 cells grown in Terrific Broth containing 100 μg/ml ampicillin. Cell cultures were inoculated at 37° C. and grown to an OD600 of 0.8. Cultures were induced with 0.1% arabinose and grown overnight at 20° C. with continuous shaking at 225 rpm. Cells were then harvested by centrifugation and stored at −80° C. Cell pellets were suspended in Buffer A (50 mM Tris-HCl pH 7.2, 100 mM NaCl, 100 mM L-arginine, 1 mM TCEP, 0.05% (w/v) NP-40, 50 mM imidazole) followed by the addition of lysozyme and benzonase. Cells were lysed by sonication and the lysate was cleared by centrifugation (15,000 rpm, 90 min, 4° C.). The protein was purified by nickel affinity chromatography using a HisTrap Crude FF column (GE Healthcare). Samples were eluted in Buffer A with a 50-200 mM imidazole gradient. […] The flow-through was then dialyzed into 50 mM MES pH 6.0, 1 mM TCEP, 5 mM NaCl for ion exchange chromatography on a HiTrap SP Cation Exchange column (GE Healthcare). […] Fractions were pooled for further purification by size exclusion chromatography over a Superdex 75 Size Exclusion Column (GE Healthcare). Final protein was concentrated to 4 mg/ml and dialyzed in 10 mM PIPES pH 7.0, 100 mM NaCl, 0.5 mM TCEP.
# (10 μM, California Peptide Research Inc., Napa, Calif.), and [5-^14C]-2-oxoglutaric acid (50 mCi/mmol, Moravek Chemicals, Brea, Calif.) in reaction buffer (40 mM Tris-HCl, pH 7.5, 0.4 mg/ml catalase, 0.5 mM DTT, 1 mM ascorbate) for 10 minutes. The reaction was stopped by addition of 50 μl of 70 mM H3PO4 and 50 μl of 500 mM NaH2PO4, pH3.2. Detection of [^14C]-succinic acid was achieved by separating from [5-^14C]-2-oxoglutaric acid by incubating the reaction mixture with 100 μl of 0.16 M DNP prepared in 30% perchloric acid. Next, 50 μl of unlabeled 20 mM 2-oxoglutaric acid/20 mM succinic acid, serving as carrier for the radioactivity, was added to the mixture, and was allowed to proceed for 30 minutes at room temperature. The reaction was then incubated with 50 μl of 1 M 2-oxoglutaric acid for 30 additional minutes at room temperature to precipitate the excess DNP. The reaction was then centrifuged at 2800×g for 10 minutes at room temperature to separate [^14C]-succinic acid in the supernatant from the precipitated [^14C]-dinitrophenylhydrazone. Fractions of the supernatant (400 μl) were counted using a beta counter (Beckman Coulter, Fullerton, Calif.).
SMILES,IC50 (human PHD2 (PHD2181-417)),Emax at 100 µM (Hep-3B cells)
"COc1cc(Oc2ccc3nc(-n4cc(C(=O)O)cn4)[nH]c(=O)c3c2)cc(OC)c1OC [Example 28, 1-[4-Oxo-6-(3,4,5-trimethoxy-phenoxy)-3,4-dihydro-quinazolin-2-yl]-1H-pyrazole-4-carboxylic acid]",20 nM,9%
"O=C(O)c1cnn(-c2nc3ccc(Oc4cccc5ccccc45)cc3c(=O)[nH]2)c1 [Example 29, 1-[6-(naphthalen-1-yloxy)-4-oxo-3,4-dihydro-quinazolin-2-yl]-1H-pyrazole-4-carboxylic acid]",25.1 nM,124%
"COc1cccc(Oc2ccc3nc(-n4cc(C(=O)O)cn4)[nH]c(=O)c3c2)c1 [Example 31, 1-[6-(3-Methoxy-phenoxy)-4-oxo-3,4-dihydro-quinazolin-2-yl]-1H-pyrazole-4-carboxylic acid]",20 nM,129%
"O=C(O)c1cnn(-c2nc3ccc(Oc4ccc(F)cc4)cc3c(=O)[nH]2)c1 [Example 32, 1-[6-(4-Fluoro-phenoxy)-4-oxo-3,4-dihydro-quinazolin-2-yl]-1H-pyrazole-4-carboxylic acid]",25.1 nM,68%
"CC(C)(C)c1cc(Oc2ccc3nc(-n4cc(C(=O)O)cn4)[nH]c(=O)c3c2)cc(C(C)(C)C)c1 [Example 35, 1-[6-(3,5-Di-tert-butyl-phenoxy)-4-oxo-3,4-dihydro-quinazolin-2-yl]-1H-pyrazole-4-carboxylic acid]",31.6 nM,8%
"COc1ccc(Oc2ccc3nc(-n4cc(C(=O)O)cn4)[nH]c(=O)c3c2)cc1 [Example 41, 1-[6-(4-Methoxy-phenoxy)-4-oxo-3,4-dihydro-quinazolin-2-yl]-1H-pyrazole-4-carboxylic acid]",20 nM,112%
"O=C(O)c1cnn(-c2nc3ccc(Oc4ccc5ccccc5c4)cc3c(=O)[nH]2)c1 [Example 43, 1-[6-(Naphthalen-2-yloxy)-4-oxo-3,4-dihydro-quinazolin-2-yl]-1H-pyrazole-4-carboxylic acid]",25.1 nM,76%
"O=C(O)c1cnn(-c2nc3ccc(Oc4cccc5c4CCCC5)cc3c(=O)[nH]2)c1 [Example 44, 1-[4-Oxo-6-(5,6,7,8-tetrahydro-naphthalen-1-yloxy)-3,4-dihydro-quinazolin-2-yl]-1H-pyrazole-4-carboxylic acid]",25.1 nM,52%
"O=C(O)c1cnn(-c2nc3ccc(Oc4ccc(Cl)cc4)cc3c(=O)[nH]2)c1 [Example 46, 1-[6-(4-Chloro-phenoxy)-4-oxo-3,4-dihydro-quinazolin-2-yl]-1H-pyrazole-4-carboxylic acid]",31.6 nM,126%
"Cc1ccc(Oc2ccc3nc(-n4cc(C(=O)O)cn4)[nH]c(=O)c3c2)cc1 [Example 47, 1-(4-Oxo-6-p-tolyloxy-3,4-dihydro-quinazolin-2-yl)-1H-pyrazole-4-carboxylic acid]",31.6 nM,95%

# More lines, main results first:
IC50 (human PHD2 (PHD2181-417)),SMILES,Emax at 100 µM (Hep-3B cells)
20 nM,"Cc1cc2nc(-n3cc(C(=O)O)cn3)[nH]c(=O)c2cc1Oc1c(C)cccc1C [Example 27, 1-[6-(2,6-Dimethyl-phenoxy)-7-methyl-4-oxo-3,4-dihydro-quinazolin-2-yl]-1H-pyrazole-4-carboxylic acid]",10%
25.1 nM,"O=C(O)c1cnn(-c2nc3ccc(Oc4cccc(Cl)c4)cc3c(=O)[nH]2)c1 [Example 30, 1-[6-(3-Chloro-phenoxy)-4-oxo-3,4-dihydro-quinazolin-2-yl]-1H-pyrazole-4-carboxylic acid]",15%
31.6 nM,"O=C(O)c1cnn(-c2nc3ccc(Oc4ccccc4F)cc3c(=O)[nH]2)c1 [Example 33, 1-[6-(2-Fluoro-phenoxy)-4-oxo-3,4-dihydro-quinazolin-2-yl]-1H-pyrazole-4-carboxylic acid]",56%
25.1 nM,"O=C(O)c1cnn(-c2nc3ccc(Oc4cccc(F)c4)cc3c(=O)[nH]2)c1 [Example 34, 1-[6-(3-Fluoro-phenoxy)-4-oxo-3,4-dihydro-quinazolin-2-yl]-1H-pyrazole-4-carboxylic acid]",73%
39.8 nM,"Cc1cccc(Oc2ccc3nc(-n4cc(C(=O)O)cn4)[nH]c(=O)c3c2)c1 [Example 36, 1-(4-Oxo-6-m-tolyloxy-3,4-dihydro-quinazolin-2-yl)-1H-pyrazole-4-carboxylic acid]",22%
25.1 nM,"Cc1ccccc1Oc1ccc2nc(-n3cc(C(=O)O)cn3)[nH]c(=O)c2c1 [Example 37, 1-(4-Oxo-6-o-tolyloxy-3,4-dihydro-quinazolin-2-yl)-1H-pyrazole-4-carboxylic acid]",78%
20 nM,"O=C(O)c1cnn(-c2nc3ccc(Oc4c(Cl)cccc4Cl)cc3c(=O)[nH]2)c1 [Example 38, 1-[6-(2,6-Dichloro-phenoxy)-4-oxo-3,4-dihydro-quinazolin-2-yl]-1H-pyrazole-4-carboxylic acid]",91%
25.1 nM,"O=C(O)c1cnn(-c2nc3ccc(Oc4ccc(Cl)cc4Cl)cc3c(=O)[nH]2)c1 [Example 39, 1-[6-(2,4-Dichloro-phenoxy)-4-oxo-3,4-dihydro-quinazolin-2-yl]-1H-pyrazole-4-carboxylic acid]",77%
25.1 nM,"O=C(O)c1cnn(-c2nc3ccc(Oc4cc(Cl)ccc4Cl)cc3c(=O)[nH]2)c1 [Example 40, 1-[6-(2,5-Dichloro-phenoxy)-4-oxo-3,4-dihydro-quinazolin-2-yl]-1H-pyrazole-4-carboxylic acid]",77%
25.1 nM,"Cc1cccc(C)c1Oc1ccc2nc(-n3cc(C(=O)O)cn3)[nH]c(=O)c2c1 [Example 42, 1-[6-(2,6-Dimethyl-phenoxy)-4-oxo-3,4-dihydro-quinazolin-2-yl]-1H-pyrazole-4-carboxylic acid]",117%
31.6 nM,"O=C(O)c1cnn(-c2nc3cc(Cl)c(Oc4ccc(Cl)cc4)cc3c(=O)[nH]2)c1 [Example 48, 1-[7-Chloro-6-(4-chloro-phenoxy)-4-oxo-3,4-dihydro-quinazolin-2-yl]-1H-pyrazole-4-carboxylic acid]",51%
31.6 nM,"Cc1cccc(C)c1Oc1cc2c(=O)[nH]c(-n3cc(C(=O)O)cn3)nc2cc1Cl [Example 49, 1-[7-Chloro-6-(2,6-dimethyl-phenoxy)-4-oxo-3,4-dihydro-quinazolin-2-yl]-1H-pyrazole-4-carboxylic acid]",55%
31.6 nM,"O=C(O)c1cnn(-c2nc3cc(F)c(Oc4c(Cl)cccc4Cl)cc3c(=O)[nH]2)c1 [Example 50, 1-[6-(2,6-Dichloro-phenoxy)-7-fluoro-4-oxo-3,4-dihydro-quinazolin-2-yl]-1H-pyrazole-4-carboxylic acid]",67%
39.8 nM,"O=C(O)c1cnn(-c2nc3cc(F)c(Oc4ccc5ccccc5c4)cc3c(=O)[nH]2)c1 [Example 52, 1-[7-Fluoro-6-(naphthalen-2-yloxy)-4-oxo-3,4-dihydro-quinazolin-2-yl]-1H-pyrazole-4-carboxylic acid]",76%
